Test results: US6417164B1, “Treatment of type II diabetes mellitus with amylin agonists” (Amylin Pharmaceuticals, Inc., priority 1995, dated 2002)
Ends that are not written are not given here.

Assays:
[1] = test system: insulin-stimulated glycogen synthesis in soleus muscle; test: Soleus muscle assay; parameters: species or system rat
Protocol: Assays of biological activity of amylin agonists, including amylin agonist analogue preparations, in the soleus muscle are performed using previously described methods (Leighton, B. and Cooper, G. J. S., Nature, 335:632-635 (1988); Cooper, G. J. S., et al. Proc. Natl. Acad. Sci. USA 85:7763-7766 (1988)). In summary, amylin agonist activity is assessed by measuring the inhibition of insulin-stimulated glycogen synthesis in soleus muscle. Amylin antagonist activity is assessed by measuring the resumption of insulin-stimulated glycogen synthesis in the presence of 100 nM rat amylin and an amylin antagonist. Concentrations of peptide dissolved in carrier-free buffers are determined by quantitative amino acid analysis, as described therein. The ability of compounds to act as agonists in this assay is determined by measuring EC50 values. Standard errors are determined by fitting of sigmoidal dose response curves using a four parameter logistic equation (De Lean, A., Munson, P. J., Guardabasso, V. and Rodbard, D. (1988) ALLFIT, Version 2.7, National Institute of Child Health and Human Development, N.I.H. Bethesda, Md., 1 diskette). A number of amylin agonists have been characterized using these biological assays.

[2] = biological target: T1, membrane-bound amylin receptors (Rattus norvegicus, UniProt P32214+Q9JJ74); test: Receptor binding assay (competition with 125I Bolton Hunter rat amylin)
T1 construct: A preferred source of the membrane preparations used in the assay is the basal forebrain which comprises membranes from the nucleus accumbens; from tissue; host or cells: basal forebrain membranes (nucleus accumbens and surrounding regions)
T1 sequence (P32214 25-516): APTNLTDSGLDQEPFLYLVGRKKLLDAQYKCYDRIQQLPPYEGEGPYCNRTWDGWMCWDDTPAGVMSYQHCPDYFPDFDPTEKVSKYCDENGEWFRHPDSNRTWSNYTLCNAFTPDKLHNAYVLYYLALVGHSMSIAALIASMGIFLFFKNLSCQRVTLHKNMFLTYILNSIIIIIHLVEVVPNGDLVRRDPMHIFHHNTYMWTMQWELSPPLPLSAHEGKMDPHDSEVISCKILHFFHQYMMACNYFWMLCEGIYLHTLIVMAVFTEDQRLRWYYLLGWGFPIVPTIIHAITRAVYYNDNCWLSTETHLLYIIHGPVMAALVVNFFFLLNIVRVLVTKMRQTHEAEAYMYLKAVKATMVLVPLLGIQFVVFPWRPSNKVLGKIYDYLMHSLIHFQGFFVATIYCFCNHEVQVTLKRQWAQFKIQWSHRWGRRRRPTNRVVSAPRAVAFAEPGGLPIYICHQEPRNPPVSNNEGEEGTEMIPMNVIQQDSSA
T1 sequence (Q9JJ74 27-148): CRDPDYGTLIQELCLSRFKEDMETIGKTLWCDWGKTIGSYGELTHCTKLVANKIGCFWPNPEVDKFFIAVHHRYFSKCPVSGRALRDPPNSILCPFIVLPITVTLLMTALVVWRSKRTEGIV
Text: The receptor binding assay is described in U.S. Pat. No. 5,264,372, issued Nov. 23, 1993, the disclosure of which is incorporated herein by reference. The receptor binding assay is a competition assay which measures the ability of compounds to bind specifically to membrane-bound amylin receptors. A preferred source of the membrane preparations used in the assay is the basal forebrain which comprises membranes from the nucleus accumbens and surrounding regions. Compounds being assayed compete for binding to these receptor preparations with ^125I Bolton Hunter rat amylin. Competition curves, wherein the amount bound (B) is plotted as a function of the log of the concentration of ligand are analyzed by computer, using analyses by nonlinear regression to a 4-parameter logistic equation (Inplot program; GraphPAD Software, San Diego, Calif.) or the ALLFIT program of DeLean et. al. (ALLFIT, Version 2.7 (NIH, Bethesda, Md. 20892)). Munson, P. and Rodbard, D., Anal. Biochem. 107:220-239 (1980).

treated test animals = test: Amylin activity in vivo in treated test animals
Text: (§1) These preferred compounds include ^25Pro^26Val^28,29Pro-h-amylin, ^25,28,29Pro-h-amylin (also referred to herein as “AC-0137”), and ^18Arg^25,28Pro-h-amylin.

[3] = Solubility and stability characteristics compared to human amylin; format: physicochemical
Text: as §1

In the case of ^18Arg^25,28,29Pro-h-amylin, the “amylin agonist action in the soleus muscle assay” value (from here on “amylin agonist action”) [1] was “shown to act as amylin agonists”, the “antagonist activity as measured by the soleus muscle assay” value (“antagonist activity as measured” below) [1] was “negligible antagonist activity” and the “competition with amylin in the receptor binding assay” value (“competition with amylin” for short) [2] was “found to compete with amylin”.
With “^28Pro-h-amylin (KCNTATCATQRLANFLVHSSNNFGAILPSTNVGSNTY; ends and bridges not checked; cysteine pairing not given here; UniProt P10997 34-70, looked up, variant S28P) [amylin agonist analogue of human amylin]” the “amylin activity in vivo” value (treated test animals) was “marked hyperlactemia followed by hyperglycemia”.
In the case of `CC[C@H](C)[C@H](NC(=O)[C@@H]1CCCN1C(=O)CNC(=O)[C@H](Cc1ccccc1)NC(=O)[C@H](CC(N)=O)NC(=O)[C@H](CC(N)=O)NC(=O)[C@H](CO)NC(=O)[C@H](CO)NC(=O)[C@H](Cc1c[nH]cn1)NC(=O)[C@@H](NC(=O)[C@H](CC(C)C)NC(=O)[C@H](Cc1ccccc1)NC(=O)[C@H](CC(N)=O)NC(=O)[C@H](C)NC(=O)[C@H](CC(C)C)NC(=O)[C@H](CCCNC(=N)N)NC(=O)[C@H](CCC(N)=O)NC(=O)[C@@H](NC(=O)[C@H](C)NC(=O)[C@@H]1CSSC[C@H](NC(=O)[C@@H](N)CCCCN)C(=O)N[C@@H](CC(N)=O)C(=O)N[C@@H]([C@@H](C)O)C(=O)N[C@@H](C)C(=O)N[C@@H]([C@@H](C)O)C(=O)N1)[C@@H](C)O)C(C)C)C(=O)N[C@@H](CC(C)C)C(=O)N1CCC[C@H]1C(=O)N1CCC[C@H]1C(=O)N[C@H](C(=O)N[C@@H](CC(N)=O)C(=O)N[C@H](C(=O)NCC(=O)N[C@@H](CO)C(=O)N[C@@H](CC(N)=O)C(=O)N[C@H](C(=O)N[C@@H](Cc1ccc(O)cc1)C(N)=O)[C@@H](C)O)C(C)C)[C@@H](C)O` [AC137, ^25,28,29Pro-h-amylin], the stability characteristics [3] was “more desirable”.
With des-^1Lys^18Arg^25,28Pro-h-amylin the “amylin activity in vivo” value (treated test animals) was “marked hyperlactemia followed by hyperglycemia”, the “amylin agonist action” value [1] was “shown to act as amylin agonists” and the “antagonist activity as measured” value [1] was “negligible antagonist activity”. The “competition with amylin” value [2] was “found to compete with amylin”.
In the case of des-^1Lys^18Arg^25,28,29Pro-h-amylin, the “amylin agonist action” value [1] was “shown to act as amylin agonists”, the “antagonist activity as measured” value [1] was “negligible antagonist activity” and the “competition with amylin” value [2] was “found to compete with amylin”.
With des-^1Lys-h-amylin [des-^1Lys-hamylin] the “amylin activity in vivo” value (treated test animals) was “marked hyperlactemia followed by hyperglycemia”.
With ^25Pro^26Val^25,28Pro-h-amylin the “amylin agonist action” value [1] was “shown to act as amylin agonists”, the “antagonist activity as measured” value [1] was “negligible antagonist activity” and the “competition with amylin” value [2] was “found to compete with amylin”.
With des-^1Lys^25,28,29Pro-h-amylin the “amylin agonist action” value [1] was “shown to act as amylin agonists”, the “antagonist activity as measured” value [1] was “negligible antagonist activity” and the “competition with amylin” value [2] was “found to compete with amylin”.
